From PubChem BioAssay (NCI)
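1) Cells in 96-well plates. 2) Compound, 48 h, 5 concentrations. 3) Linear interpolation between surrounding doses. 4) Unreached endpoint = highest concentration. GI50 marks 50% less growth. Definition used: TGI = concentration required for complete inhibition of growth.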

Experiments:
Experiment in all cases: inhibition of tumour cell growth, NCI panel, 48 h
LOX IMVI melanoma = system: LOX IMVI melanoma
UACC-257 melanoma = system: UACC-257 melanoma
NCI-H23 lung = system: NCI-H23 lung
SF-295 CNS = system: SF-295 CNS
SK-MEL-2 melanoma = system: SK-MEL-2 melanoma
SF-539 CNS = system: SF-539 CNS
SK-MEL-28 melanoma = system: SK-MEL-28 melanoma
SNB-19 CNS = system: SNB-19 CNS
786-0 renal = system: 786-0 renal
HL-60(TB) leukemia = system: HL-60(TB) leukemia
HS 578T breast = system: HS 578T breast
M14 melanoma = system: M14 melanoma
MDA-MB-435 = system: MDA-MB-435
SF-268 CNS = system: SF-268 CNS
COLO 205 colon = system: COLO 205 colon
CAKI-1 renal = system: CAKI-1 renal
MDA-MB-231 breast = system: MDA-MB-231 breast
HCT-116 colon = system: HCT-116 colon
TK-10 renal = system: TK-10 renal
SNB-75 CNS = system: SNB-75 CNS
ACHN renal = system: ACHN renal
HT29 colon = system: HT29 colon
NCI-H522 lung = system: NCI-H522 lung
MOLT-4 leukemia = system: MOLT-4 leukemia
U251 CNS = system: U251 CNS
SN12C renal = system: SN12C renal
UO-31 renal = system: UO-31 renal
SK-MEL-5 melanoma = system: SK-MEL-5 melanoma
BT-549 breast = system: BT-549 breast
CCRF-CEM leukemia = system: CCRF-CEM leukemia
RPMI-8226 leukemia = system: RPMI-8226 leukemia
NCI/ADR-RES ovarian = system: NCI/ADR-RES ovarian
NCI-H226 lung = system: NCI-H226 lung
OVCAR-4 ovarian = system: OVCAR-4 ovarian
EKVX NSCLC = system: EKVX NSCLC
MALME-3M melanoma = system: MALME-3M melanoma
A498 renal = system: A498 renal
SR leukemia = system: SR leukemia
NCI-H460 lung = system: NCI-H460 lung
HCT-15 colon = system: HCT-15 colon
IGROV1 ovarian = system: IGROV1 ovarian
UACC-62 melanoma = system: UACC-62 melanoma
K-562 leukemia = system: K-562 leukemia
DU-145 prostate = system: DU-145 prostate
HOP-62 NSCLC = system: HOP-62 NSCLC
OVCAR-5 ovarian = system: OVCAR-5 ovarian
MCF7 breast = system: MCF7 breast
PC-3 prostate = system: PC-3 prostate
OVCAR-8 ovarian = system: OVCAR-8 ovarian
SK-OV-3 ovarian = system: SK-OV-3 ovarian
A549 NSCLC = system: A549 NSCLC
KM12 colon = system: KM12 colon
OVCAR-3 ovarian = system: OVCAR-3 ovarian
T-47D breast = system: T-47D breast

With `O=C(N/N=C(\CN1CCN(c2cc3[nH]cc(C(=O)O)c(=O)c3cc2F)CC1)c1ccc(Cl)cc1)c1ccncc1` the GI50 (LOX IMVI melanoma) was 16.8 µM, the TGI (LOX IMVI melanoma) was 33.4 µM and the GI50 (UACC-257 melanoma) was 23.2 µM. It also gave a TGI (UACC-257 melanoma) of 49 µM, a GI50 (NCI-H23 lung) of 30.8 µM and a TGI (NCI-H23 lung) of 81.2 µM. The GI50 (SF-295 CNS) was 21 µM, the TGI (SF-295 CNS) was 52.1 µM and the GI50 (SK-MEL-2 melanoma) was 30.7 µM. For the same compound, the TGI (SK-MEL-2 melanoma) was 74.4 µM, the GI50 (SF-539 CNS) was 28.6 µM and the TGI (SF-539 CNS) was 87.4 µM. The GI50 (SK-MEL-28 melanoma) was > 100 µM, the TGI (SK-MEL-28 melanoma) was > 100 µM and the GI50 (SNB-19 CNS) was 76.9 µM. The TGI (SNB-19 CNS) was > 100 µM, the GI50 (786-0 renal) was 39.9 µM and the TGI (786-0 renal) was > 100 µM. It also gave a GI50 (HL-60(TB) leukemia) of 19.4 µM, a TGI (HL-60(TB) leukemia) of 43.3 µM and a GI50 (HS 578T breast) of 29.1 µM. The TGI (HS 578T breast) was 99.2 µM, the GI50 (M14 melanoma) was 32.3 µM and the TGI (M14 melanoma) was 79.5 µM. The GI50 (MDA-MB-435) was 19.4 µM, the TGI (MDA-MB-435) was 49.4 µM and the GI50 (SF-268 CNS) was 25.8 µM. For the same compound, the TGI (SF-268 CNS) was 89.9 µM, the GI50 (COLO 205 colon) was 78 µM and the TGI (COLO 205 colon) was > 100 µM. It also gave a GI50 (CAKI-1 renal) of 1.96 µM, a TGI (CAKI-1 renal) of 5.61 µM and a GI50 (MDA-MB-231 breast) of 20.2 µM. For the same compound, the TGI (MDA-MB-231 breast) was 46.1 µM, the GI50 (HCT-116 colon) was 37.5 µM and the TGI (HCT-116 colon) was > 100 µM. The GI50 (TK-10 renal) was 43 µM, the TGI (TK-10 renal) was > 100 µM and the GI50 (SNB-75 CNS) was 61.6 µM. For the same compound, the TGI (SNB-75 CNS) was > 100 µM, the GI50 (ACHN renal) was 18.4 µM and the TGI (ACHN renal) was 42.6 µM. The GI50 (HT29 colon) was 37 µM, the TGI (HT29 colon) was > 100 µM and the GI50 (NCI-H522 lung) was 22.7 µM. For the same compound, the TGI (NCI-H522 lung) was 52.9 µM, the GI50 (MOLT-4 leukemia) was 22.8 µM and the TGI (MOLT-4 leukemia) was 52.6 µM. The GI50 (U251 CNS) was 33.5 µM, the TGI (U251 CNS) was > 100 µM and the GI50 (SN12C renal) was 24.8 µM. For the same compound, the TGI (SN12C renal) was 61.8 µM, the GI50 (UO-31 renal) was 18.7 µM and the TGI (UO-31 renal) was 41.8 µM. It also gave a GI50 (SK-MEL-5 melanoma) of 16.4 µM, a TGI (SK-MEL-5 melanoma) of 31.6 µM and a GI50 (BT-549 breast) of 33.6 µM. For the same compound, the TGI (BT-549 breast) was > 100 µM, the GI50 (CCRF-CEM leukemia) was 22.5 µM and the TGI (CCRF-CEM leukemia) was > 100 µM. It also gave a GI50 (RPMI-8226 leukemia) of 19 µM, a TGI (RPMI-8226 leukemia) of 43 µM and a GI50 (NCI/ADR-RES ovarian) of 28.4 µM. For the same compound, the TGI (NCI/ADR-RES ovarian) was 66.3 µM, the GI50 (NCI-H226 lung) was 23.1 µM and the TGI (NCI-H226 lung) was 80.5 µM. For the same compound, the GI50 (OVCAR-4 ovarian) was 39.8 µM, the TGI (OVCAR-4 ovarian) was > 100 µM and the GI50 (EKVX NSCLC) was 38 µM. For the same compound, the TGI (EKVX NSCLC) was > 100 µM, the GI50 (MALME-3M melanoma) was 18.6 µM and the TGI (MALME-3M melanoma) was 58 µM. For the same compound, the GI50 (A498 renal) was 23.3 µM, the TGI (A498 renal) was > 100 µM and the GI50 (SR leukemia) was 18.2 µM. For the same compound, the TGI (SR leukemia) was 55.4 µM, the GI50 (NCI-H460 lung) was 22.7 µM and the TGI (NCI-H460 lung) was 67.6 µM. The GI50 (HCT-15 colon) was 21.1 µM, the TGI (HCT-15 colon) was 42.8 µM and the GI50 (IGROV1 ovarian) was 3.32 µM. For the same compound, the TGI (IGROV1 ovarian) was 26.9 µM, the GI50 (UACC-62 melanoma) was 25.6 µM and the TGI (UACC-62 melanoma) was 61.9 µM. The GI50 (K-562 leukemia) was 26.9 µM, the TGI (K-562 leukemia) was > 100 µM and the GI50 (DU-145 prostate) was 36 µM. The TGI (DU-145 prostate) was > 100 µM, the GI50 (HOP-62 NSCLC) was 39.4 µM and the TGI (HOP-62 NSCLC) was > 100 µM. For the same compound, the GI50 (OVCAR-5 ovarian) was 50.9 µM, the TGI (OVCAR-5 ovarian) was > 100 µM and the GI50 (MCF7 breast) was 21 µM. It also gave a TGI (MCF7 breast) of 66.9 µM, a GI50 (PC-3 prostate) of 22.7 µM and a TGI (PC-3 prostate) of 52.4 µM. It also gave a GI50 (OVCAR-8 ovarian) of 21.4 µM, a TGI (OVCAR-8 ovarian) of 47.4 µM and a GI50 (SK-OV-3 ovarian) of 78.6 µM. For the same compound, the TGI (SK-OV-3 ovarian) was > 100 µM, the GI50 (A549 NSCLC) was 22.3 µM and the TGI (A549 NSCLC) was 65.5 µM. For the same compound, the GI50 (KM12 colon) was 30.6 µM, the TGI (KM12 colon) was > 100 µM and the GI50 (OVCAR-3 ovarian) was 2.89 µM. The TGI (OVCAR-3 ovarian) was 19.9 µM, the GI50 (T-47D breast) was 42.2 µM and the TGI (T-47D breast) was > 100 µM.
